From patent EP1019422B1, “PHOSPHINE-SUBSTITUTED COBALTICINIUM SALTS, PRODUCTION THEREOF, AND USE OF THE SAME AS CONSTITUENTS OF CATALYSTS” (Celanese Chemicals Europe GmbH, priority 1997, dated 1999)

Test: Solubility properties of the compounds (Table 1)
Assay type: physicochemical
Conditions: for Löslichkeitseigenschaften: qualitative, solvents named in the cell
Excerpt: In Tabelle 1 sind die erfindungsgemäßen Verbindungen bezüglich ihrer Farbe/Konsistenz und bezüglich ihrer Löslichkeitseigenschaften zusammengestellt.

Molecule | Löslichkeitseigenschaften | Löslichkeit in Wasser (water, in contrast to the other compounds of formula I and the known hexafluorophosphate)
1,1'-Bis(diphenylphosphino)cobalticinium Tetrafluoroborat [Beispiel 1] | löslich in Methylenchlorid, Nitro-methan, Methanol und Aceton | –
1,1'-Bis(diphenylphosphino)cobalticinium Tosylat [Beispiel 4] | löslich in Methylenchlorid, Methanol, Aceton, Nitromethan | –
1,1'-Bis(diphenylphosphino)cobalticinium Trifluoracetat [Beispiel 6] | löslich in Methylenchlorid, Aceton, Methanol, Nitromethan | –
1,1'-Bis(diphenylphosphinoindenyl)-cobalticinium-Tetrafluoroborat [Beispiel 8] | löslich in Methylenchlorid | –
C1=CC(P(c2ccccc2)c2ccccc2)C=C1.[Co+2].[F][Sb-]([F])([F])([F])([F])[F].c1ccc(P(c2ccccc2)[c-]2cccc2)cc1 [Beispiel 2, 1,1'-Bis(diphenylphosphino)cobalticinium Hexafluoroantimonat] | löslich in Methylenchlorid, Nitromethan, Methan und Aceton | –
C1=CC(P(c2ccccc2)c2ccccc2)C=C1.O=[N+]([O-])[O-].[Co+2].c1ccc(P(c2ccccc2)[c-]2cccc2)cc1 [Beispiel 3, 1,1'-Bis (diphenylphosphino)cobalticinium Nitrat] | löslich in warmem Wasser | gute Löslichkeit in Wasser
C1=CC(P(c2ccccc2)c2ccccc2)C=C1.O=S(=O)([O-])C(F)(F)F.[Co+2].c1ccc(P(c2ccccc2)[c-]2cccc2)cc1 [Beispiel 5, 1,1'-Bis(diphenylphosphino)cobalticinium Triflat] | löslich in Methylenchlorid, Aceton, Nitromethan, Methanol | –
C1=CC(P(c2ccccc2)c2ccccc2)C=C1.[Co+2].c1ccc(P(c2ccccc2)[c-]2cccc2)cc1.c1ccc([B-](c2ccccc2)(c2ccccc2)c2ccccc2)cc1 [Beispiel 7, 1,1'-Bis(diphenylphosphino)cobalticinium Tetraphenylborat] | löslich in Methylenchlorid | –
